Entries after “also recorded” stand apart in the source; their conditions may differ.
Biological target: T1, F508del CFTR (Homo sapiens, UniProt P13569, DEL508-508)
T1 construct: expressed in transfected cells; host or cells: CFBE41o- cells overexpressing F508del CFTR and HS-YFP (YFP-H148Q/I152L), a gift from N. Pedemonte, Gaslini Institute
Assay: F508del CFTR functional rescue (corrector) HS-YFP single-cell assay
Format: cell-based
Settings: CFBE41o- YFP-F508del cells; for F508del CFTR rescue (corrector) activity: 48 h incubation, 200 nM
Procedure: To verify the possibility that the title compounds may act as correctors in CFBE41o-, overexpressing F508del and the high sensitivity halide-sensing yellow fluorescent protein (HS-YFP) YFP-H148Q/I152L, we examined the effect of 48 h preincubation with vehicle or the TMA analogs or TMA or VX809 (Lumacaftor), as a positive control.
At the time of the assay, the correction of the F508del-CFTR function was evaluated in single-cell analysis by measuring the decrease in YFP fluorescence after the concomitant addition of extracellular iodide and the activating cocktail (20 μM forskolin and 5 μM VX770), in the presence or absence of the 10 μM CFTR inhibitor, CFTRinh-172. […] At least two derivatives show CFTR activity similar to that of the parent TMA.
The effect of TMA analogs on CFTR function was tested in CFBE41o- overexpressing F508del and the high sensitivity halide-sensing yellow fluorescent protein (HS-YFP) YFP-H148Q/I152L (a generous gift from N. Pedemonte, Gaslini Institute, Genova, Italy). YFP CF cells were seeded on round glass coverslips and preincubated for 48 h with vehicle or test compounds or VX809 or TMA. At the time of the assay, cells were washed in Dulbecco’s PBS (in mM: 137 NaCl, 2.7 KCl, 8.1 Na2HPO4, 1.5 KH2PO4, 1 CaCl2, and 0.5 MgCl2, pH 7.4) and subsequently incubated with a stimulation cocktail (20 μM forskolin and 5 μM VX770) in the presence and absence of 10 μM CFTR inhibitor, CFTRInh-172 (Sigma), for 30 min. The coverslips were then transferred on a Nikon TMD inverted microscope through a Nikon Fluor 40 objective. The signal was acquired with a Hamamatsu C2400–97 charge-coupled intensified video camera at a rate of 1 frame/3 s. The fluorescence coming from every single cell was analyzed by custom software (Spin, Vicenza, Italy). The results are presented as transformed data to obtain the percentage signal variation (Fx) relative to the time of addition of the stimulus, according to the equation: Fx = ([Ft − Fo]/Fo) × 100, where Ft and Fo are the fluorescence values at time t and at the time of stimulus addition, respectively. The assay of each sample consists of a continuous 99-s fluorescence reading with 30 s before and 69 s after injection of the iodide-rich Dulbecco’s PBS (in mM: 137 NaI, 2.7 KCl, 8.1 Na2HPO4, 1.5 KH2PO4, 1 CaCl2, and 0.5 MgCl2, pH 7.4) to reach a final iodide concentration of 50 mM [20]. The different sensitivity of HS-YFP toward iodide and chloride allows assays to be performed by measuring the transport of anions through the plasma membrane as changes in cell fluorescence. For this assay, cells expressing HS-YFP are equilibrated in a physiological chloride-rich saline solution (e.g., Dulbecco’s PBS). During fluorescence reading, cells are exposed to a high concentration of iodide. Iodide influx quenches the cell fluorescence with a rate that depends on the permeability of the cell membrane to halides, and therefore, on the activity of the anion channels or transporters.
Figure 4 Evaluation of different TMA analogs as F508del CFTR correctors in CFBE41o- YFP-F508del cells. Correction of F508del-CFTR function was assessed, in a single cell, by measuring the decrease in YFP fluorescence upon addition of extracellular iodide and with the activating cocktail, in the presence or absence of CFTR inhibitor, CFTRInh-172. Iodide influx was tested under control condition (vehicle) or after 48 h incubation with the correctors 200 nM or 1 μM VX809. The YFP fluorescence decay rate was calculated by fitting the fluorescence data with an exponential function of time courses. CFTR activity was obtained by the difference between the fluorescence decay rate of YFP in the presence and absence of CFTRInh-172. Fluorescence coming from every single cell of at least five cells per field was recorded. Each bar corresponds to the mean ± SEM of data points coming from at least three different experiments (5–10 different cells/each experiment). […]

T1 sequence (P13569 with tags, fused parts or gaps DEL508-508): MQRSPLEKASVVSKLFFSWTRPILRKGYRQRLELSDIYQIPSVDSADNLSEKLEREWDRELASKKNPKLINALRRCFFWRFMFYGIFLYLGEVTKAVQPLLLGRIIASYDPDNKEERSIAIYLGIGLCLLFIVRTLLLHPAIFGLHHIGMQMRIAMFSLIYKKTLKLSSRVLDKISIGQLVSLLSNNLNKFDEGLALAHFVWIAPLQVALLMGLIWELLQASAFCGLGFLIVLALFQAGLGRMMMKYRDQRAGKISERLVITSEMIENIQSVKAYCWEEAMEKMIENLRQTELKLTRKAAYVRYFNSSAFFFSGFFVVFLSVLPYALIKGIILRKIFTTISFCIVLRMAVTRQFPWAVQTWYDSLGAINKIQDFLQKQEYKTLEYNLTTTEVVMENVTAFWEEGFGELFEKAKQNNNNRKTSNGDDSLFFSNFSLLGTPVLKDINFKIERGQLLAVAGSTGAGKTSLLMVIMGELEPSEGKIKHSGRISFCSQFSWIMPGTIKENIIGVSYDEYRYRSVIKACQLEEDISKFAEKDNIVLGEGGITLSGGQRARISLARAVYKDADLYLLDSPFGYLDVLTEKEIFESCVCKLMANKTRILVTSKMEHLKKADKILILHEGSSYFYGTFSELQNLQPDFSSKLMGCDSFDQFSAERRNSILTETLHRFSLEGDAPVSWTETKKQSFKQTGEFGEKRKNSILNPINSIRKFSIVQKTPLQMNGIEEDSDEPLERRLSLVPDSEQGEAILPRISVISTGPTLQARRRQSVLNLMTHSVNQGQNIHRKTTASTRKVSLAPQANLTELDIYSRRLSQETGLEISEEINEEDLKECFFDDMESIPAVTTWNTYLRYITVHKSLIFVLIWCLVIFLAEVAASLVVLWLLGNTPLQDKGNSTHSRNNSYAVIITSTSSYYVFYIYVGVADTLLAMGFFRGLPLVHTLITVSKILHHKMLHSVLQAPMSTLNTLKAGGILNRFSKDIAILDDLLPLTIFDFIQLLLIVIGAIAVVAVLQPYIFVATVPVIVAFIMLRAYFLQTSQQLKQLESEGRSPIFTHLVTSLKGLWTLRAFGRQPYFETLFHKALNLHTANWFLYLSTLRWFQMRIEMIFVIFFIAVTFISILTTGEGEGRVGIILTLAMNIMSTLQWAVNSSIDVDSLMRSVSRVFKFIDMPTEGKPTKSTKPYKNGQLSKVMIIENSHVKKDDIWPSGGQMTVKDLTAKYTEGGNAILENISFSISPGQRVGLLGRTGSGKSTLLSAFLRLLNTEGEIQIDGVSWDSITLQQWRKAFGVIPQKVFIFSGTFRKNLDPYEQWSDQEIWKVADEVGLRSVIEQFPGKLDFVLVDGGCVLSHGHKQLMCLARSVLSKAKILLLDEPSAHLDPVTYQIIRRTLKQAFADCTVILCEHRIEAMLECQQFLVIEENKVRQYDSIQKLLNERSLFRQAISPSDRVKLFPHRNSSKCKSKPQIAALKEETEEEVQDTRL

Row | Compound | F508del CFTR rescue (corrector) activity | F508del CFTR rescue (corrector) activity (listed as 12) | reduction in YFP fluorescence induced by iodide influx compared to vehicle (48 h treatment, representative time courses) | F508del CFTR rescue (corrector) activity (listed as 25)
1 | Cc1cc2c(-c3ccccc3)cc(=O)oc2c2c(C)coc12 [4-PhDMA] | active; also recorded: most active derivatives of the series | promising F508del CFTR rescue ability | greater reduction in YFP fluorescence | –
2 | Cc1cc(=O)oc2c1cc(-c1ccccc1)c1occ(C)c12 [6-PhDMA] | inactive | – | – | –
3 | Cc1cc(=O)oc2c1cc(-c1ccc(N)cc1)c1occ(C)c12 [pANDMA] | most active derivatives of the series | – | – | promising F508del CFTR rescue ability
